# Reference: US20210205253A1, “Use Of Stearic Acid For Preventing Or Treating Pulmonary Fibrosis” (THE ASAN FOUNDATION, priority 2018, published 2021)
# Columns and labels:
# [1] = test system: human primary fibroblasts; experiment: Combined treatment of stearic acid and nintedanib in human primary fibroblasts; format: cell-based
# Procedure: The primary fibroblasts derived from the patients with idiopathic pulmonary fibrosis used in the following experiment were cultured for 7 to 10 days while cutting the lung tissue of the patient into 1×1 mm^2 slices, and then periodically exchanging a cell culture solution (Eagle's minimal essential medium; EMEM) supplemented with 100 unit/ml penicillin, 100 μg/ml streptomycin, and 10% fetal bovine serum (FBS) under conditions of 5% CO2 and 37° C., and cells of passage 2 to 5 were used for the experiment. To verify the anti-fibrotic effect by the combined treatment of stearic acid and nintedanib, which is another therapeutic agent for idiopathic pulmonary fibrosis, human primary fibroblasts were respectively or simultaneously treated with 5 ng/ml TGF-β, 40 μM stearic acid, and 1.5 or 2 μM nintedanib for 24 hours, and then the expression levels of collagen type 1 (COL-1) and α-SMA, which are markers of fibrosis, were measured, respectively.
# [2] = test system: human pulmonary epithelial cell line Beas-2B; experiment: Fibronectin (EMT marker) expression under combined treatment in epithelial cells; format: cell-based; details: TGF-β 5 ng/ml; pirfenidone 800 μM, stearic acid 40 μM
# Procedure: FIG. 15 illustrates, as the results of confirming the anti-fibrotic effect according to the combined treatment with stearic acid and pirfenidone in a human pulmonary epithelial cell line BEAS-2B, the results of treating the cells with TGF-β (5 ng/ml), stearic acid (40 μM), and/or pirfenidone (800 μM), and then measuring the expression of fibronectin with a marker of EMT, which is one of the pulmonary fibrosis indices, and quantitatively analyzing the inhibitory efficiency thereof (TGF: TGF-β single treatment group, TGF+PIR: TGF-β and pirfenidone treatment group, TGF+Combi: TGF-β and pirfenidone+stearic acid combined treatment group).
# In addition to the results of Example 3-1-1, the present inventors tried to analyze the degree of epithelial to mesenchymal transition (EMT), which is one of the indices for pulmonary fibrosis, during the combined treatment with stearic acid and pirfenidone by treating a human pulmonary epithelial cell line Beas-2B with 800 μM, and for this purpose, the expression level of fibronectin, which is one of the EMT markers, was measured.
# [3] = test system: pulmonary fibrosis induced by bleomycin; experiment: Combined stearic acid and pirfenidone in bleomycin pulmonary fibrosis animal model; format: in vivo, mice (C57BL/6J); details: 3 mg/kg stearic acid, 300 mg/kg pirfenidone oral once every 2 days for 2 weeks
# Procedure: In addition to the results of the above examples, the present inventors sought to confirm the anti-fibrotic effect by the combined treatment of stearic acid and pirfenidone in a pulmonary fibrosis animal model. For this purpose, 8-week-old mice (C57BL/6J) were anesthetized with 50 mg/kg […] and 5 mg/kg Rompun, followed by injection of bleomycin and saline into the trachea. From 7 days after administration of bleomycin, 3 mg/kg stearic acid, 300 mg/kg pirfenidone or the two drugs were orally administered at the same time once every 2 days for 2 weeks, and changes in mouse body weight were measured up to 21 days after administration of bleomycin.
# [4] = test system: human primary fibroblasts; experiment: Combined treatment of stearic acid and pirfenidone in human primary fibroblasts (western blotting); format: cell-based; details: TGF-β single treatment group set to 100%; corrected with actin
# Procedure: The primary fibroblasts derived from the patients with idiopathic pulmonary fibrosis used in the following experiment were cultured for 7 to 10 days while cutting the lung tissue of the patient into 1×1 mm^2 slices, and then periodically exchanging a cell culture solution (Eagle's minimal essential medium; EMEM) supplemented with 100 unit/ml penicillin, 100 μg/ml streptomycin, and 10% fetal bovine serum (FBS) under conditions of 5% CO2 and 37° C., and cells of passage 2 to 5 were used for the experiment.
# To verify the anti-fibrotic effect by the combined treatment of stearic acid and pirfenidone, which is a therapeutic agent for idiopathic pulmonary fibrosis, the human primary fibroblasts isolated by the above-described method were respectively or simultaneously treated with 5 ng/ml TGF-β, 40 μM stearic acid, and 400 or 800 μM pirfenidone for 24 hours, and then the expression levels of collagen type 1 (COL-1) and α-SMA, which are markers of fibrosis, were measured by western blotting, and the inhibitory rate was quantitatively analyzed by correcting the amount of each protein with the amount of actin, which is an intracellular control protein.
# [5] = test system: human pulmonary fibroblasts (MRC-5); experiment: Cell viability (MTT) of human pulmonary fibroblasts; format: cell-based; details: palmitic acid 10, 20 and 40 μM/mL alone
# Procedure: (§1) After epithelial cells and fibroblasts were aliquoted into 6-well plates at 2×10^4 cells/well and a stabilization time was imparted for 24 hours, and 15 hours after deficiency, cells were treated with stearic acid (40 uM/mL), TGF-β (5 ng/mL), and stearic acid (40 uM/mL)+TGF-β (5 ng/mL) in this order. After the cells were cultured in an incubator for 24 hours after the treatment, the next-step experiment was performed.
# (§2) After a 24-hour cell stimulation by the method in Example 1-3 was completed, the medium of epithelial cells and fibroblasts was replaced with a general culture medium, 10 μl of an MTT solution (20 mg/ml) was further added, and then the outside of the plate was wrapped with aluminum foil and cells were cultured in an incubator for 2 hours. […] After 2 hours, cell activation was measured at an absorbance value of 595 nm using an ELISA reader.
# (§3) For this purpose, after each culture (BEGM(Lonza) in the case of MRC-5, and BMEM (ATCC) in the case of BEAS-2B) of human pulmonary fibroblasts (MRC-5; ATCC® CCL171™) and human pulmonary epithelial cells (BEAS-2B; ATCC® CRL9609™) was treated with stearic acid (40 uM/mL), TGF-β (5 ng/mL; Sigma), or stearic acid (40 uM/mL)+TGF-β (5 ng/mL) by the method described in Example 1-3 for 24 hours, cell viability was measured by the method in Example 1-4. […]
# [6] = test system: pulmonary fibroblasts; experiment: Collagen 1 and α-SMA immunoblotting in pulmonary fibroblasts; format: cell-based, human; details: relative to control
# Procedure: After epithelial cells and fibroblasts were aliquoted into 6-well plates at 2×10^4 cells/well and a stabilization time was imparted for 24 hours, and 15 hours after deficiency, cells were treated with stearic acid (40 uM/mL), TGF-β (5 ng/mL), and stearic acid (40 uM/mL)+TGF-β (5 ng/mL) in this order. After the cells were cultured in an incubator for 24 hours after the treatment, the next-step experiment was performed. After 24 hours of cell stimulation by the method of Example 1-3, the cells were washed twice with iced phosphate buffer saline (PBS), a protein lysate solution was put thereinto, the cells were scraped out and collected in a 1.5 ml EP tube, and then the cells were lysed in a grinder for 30 seconds. Next, centrifugation was performed at a speed of 14,000 rpm at 4° C. for 20 minutes, and the protein was quantified using the BCA analysis method. Thereafter, the protein sample was boiled at 95° C. for 10 minutes for the same amount of protein, and then the expression levels of collagen type 1 and α-SMA were measured by immunoblotting. After the expression level of the protein was confirmed, a significance test between samples was performed using a statistical program. […] The collagen 1/actin or α-SMA/actin indicated on the y-axis of FIGS. 4A and 4B means a value obtained by correcting the protein amount of collagen 1 or α-SMA with the amount of actin, which is an intracellular control protein. […] Further, referring to the test method of obtaining the results in FIG. 4, after pulmonary fibroblasts were treated with palmitic acid at various concentrations (10, 20, and 40 μM/mL), the levels of collagen 1 (collagen 1/actin; FIG. 6A) and α-SMA (α-SMA/actin; FIG. 6B), which are intracellular fibrosis markers, were measured, and shown as relative values to the control (CTL; medium only). […] 40 uM/mL stearic acid, 10 uM/mL palmitic acid, and 5 ng/mL TGF-β were used in the experiment, respectively. […] In addition, referring to the test method of obtaining the results in FIG. 7, the experiment was performed using oleic acid (OA) instead of palmitic acid, and the levels of collagen 1 (collagen 1/actin; FIG. 8A) and α-SMA (α-SMA/actin; FIG. 8B) were measured and shown as relative values to the control (CTL; medium only). 40 uM/mL stearic acid, 40 uM/mL oleic acid, and 5 ng/mL TGF-β were used in the experiment, respectively.
# [7] = test system: human pulmonary epithelial cells (BEAS-2B); experiment: Cell viability (MTT) of human pulmonary epithelial cells; format: cell-based; details: palmitic acid 10, 20 and 40 μM/mL alone
# Procedure: as §1, §2, §3
# [8] = test system: p-Smad2/3 and Smad7 in MRC-5 cells; experiment: p-Smad2/3 and Smad7 expression in fibroblasts; format: cell-based, human; details: 5 mM NAC pre-treatment 1 h, TGF-β1 1 h
# Procedure: The present inventors pre-treated a human pulmonary fibroblast cell line MRC-5 with 40 μM stearic acid for 16 hours, treated the MRC-5 cells with TGF-β1 for 1 hour, and then examined the expression levels of p-Smad2/3 and Smad7 in order to elucidate the anti-fibrotic mechanism of stearic acid in human pulmonary fibroblasts (FIGS. 12A and 12B). Further, to investigate the effect of stearic acid on the production of reactive oxygen species (ROS), MRC-5 cells were pre-treated with 40 μM stearic acid for 16 hours, and cells treated with TGF-β1 for 1 hour were stained with DCF-DA and analyzed by FACS (FIG. 12C). Furthermore, MRC-5 cells were pre-treated with 5 mM N-acetylcysteine (NAC), which is an antioxidant, for 1 hour and treated with TGF-β1 for 1 hour, and then the expression of p-Smad2/3 was examined (FIG. 12D).
# [9] = 1.5 μM nintedanib single treatment versus TGF single treatment
# [10] = 2 μM nintedanib single treatment versus TGF single treatment
# [11] = palmitic acid 10, 20 and 40 μM/mL alone
smiles,measurement,setting,value
COC(=O)c1ccc2c(c1)NC(=O)/C2=C(\Nc1ccc(N(C)C(=O)CN2CCN(C)CC2)cc1)c1ccccc1 [nintedanib],expression level of COL-1,[1]; [9],no change
same,expression level of α-SMA,[1]; [9],no change
same,expression level of COL-1,[1]; [10],no change
same,expression level of α-SMA,[1]; [10],no change
same,inhibition at 2 µM,"[1]; Homo sapiens, Col1, 2 μM nintedanib, 40 μM stearic acid, COL-1 expression caused by TGF assumed 100%, read-out: inhibitory rate against COL-1",110%
Cc1ccc(=O)n(-c2ccccc2)c1 [pirfenidone],"expression of fibronectin, quantitative analysis of inhibitory efficiency",[2],about 120%
same,"hydroxyproline inhibition, quantitative analysis",[3],105%
same,level of hydroxyproline,[3]; versus bleomycin group,partially reduced
same,body weight,[3]; up to day 21 after bleomycin,further reduced
same,inhibitory rate of COL-1,[4],157%
"CCCCCCCCCCCCCCCC(=O)O [palmitic acid, reference compound]",cell viability of pulmonary fibroblasts,[5],increased according to the concentration
same,collagen 1/actin,[6]; [11],increased at levels similar to that in the case where pulmonary fibroblasts were treated with only TGF-β
same,α-SMA/actin,[6]; [11],increased at levels similar to that in the case where pulmonary fibroblasts were treated with only TGF-β
same,cell viability of pulmonary epithelial cells,[7],decreased according to the treatment concentration
"CCCCCCCC/C=C\CCCCCCCC(=O)O [oleic acid, reference compound]",collagen 1/actin,[6]; oleic acid 40 uM/mL alone,activated pulmonary fibrosis at the same level as in TGF-β
same,α-SMA/actin,[6]; oleic acid 40 uM/mL alone,activated pulmonary fibrosis at the same level as in TGF-β
"CC(=O)N[C@@H](CS)C(=O)O [NAC, N-acetylcysteine, reference compound]",expression of p-Smad2/3 induced by TGF-β1,[8],inhibited
